How the values were obtained:
Format in all cases: biochemical
[1] = molecular target: T1, recombinant human baculovirus-expressed VEGFR1 cytoplasmic domain (Homo sapiens, UniProt P17948); assay: VEGFR1 kinase inhibition assay (ELISA-based, time-resolved fluorescence); conditions: 1 uM compound, 30 μM ATP; for inhibition at 1 µM: read-out: VEGFR-1 kinase % inhibition @ 1 uM
T1 construct: recombinant human baculovirus-expressed VEGFR1 cytoplasmic domain; host or cells: baculovirus expression system
T1 sequence (P17948 781-1338 limits assumed): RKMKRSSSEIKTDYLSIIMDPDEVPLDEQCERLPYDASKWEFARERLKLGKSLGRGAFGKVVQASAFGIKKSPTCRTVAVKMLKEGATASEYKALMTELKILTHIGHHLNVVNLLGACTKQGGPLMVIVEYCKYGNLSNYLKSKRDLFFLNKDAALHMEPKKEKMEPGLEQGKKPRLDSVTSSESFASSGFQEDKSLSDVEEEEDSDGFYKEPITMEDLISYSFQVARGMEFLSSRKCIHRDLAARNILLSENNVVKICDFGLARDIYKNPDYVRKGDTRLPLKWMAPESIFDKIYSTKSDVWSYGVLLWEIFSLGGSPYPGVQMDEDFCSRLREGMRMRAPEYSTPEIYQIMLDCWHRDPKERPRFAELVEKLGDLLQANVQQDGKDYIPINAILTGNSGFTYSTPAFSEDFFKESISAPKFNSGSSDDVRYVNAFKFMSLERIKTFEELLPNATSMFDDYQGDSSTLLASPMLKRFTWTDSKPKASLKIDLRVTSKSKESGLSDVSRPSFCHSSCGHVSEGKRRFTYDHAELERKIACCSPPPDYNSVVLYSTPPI
Method: Inhibition of Vascular Endothelial Growth Factor Receptor-1 Kinase Activity
The VEGFR1 kinase activity assay utilizes an ELISA-based format in a 96-well FluoroNUNC Maxisorp plate with a time-resolved fluorescence readout. The plate was coated with 100 μl/well of substrate solution (recombinant human PLC-γ/GST) at a concentration of 40 μg/ml in Tris buffered saline (TBS). The VEGFR1 activity was assayed in 100-μl assay micture containing 50 mM HEPES (pH 7.4), 30 μM ATP, 10 mM MnCl2, 0.1% BSA, 2% DMSO, and 300 ng/ml prephosphorylated recombinant human baculovirus-expressed VEGFR1 cytoplasmic domain. Compounds were screened for inhibition of the VEGFR1 kinase activity at a concentration of 1 μM. The kinase reaction was allowed to proceed at 37° C. for 15 minutes. The detection antibody, europium-labeled anti-phosphotyrosine antibody (Wallac #CR04-100), was added at 1:5000 dilution in block buffer (3% BSA in TBST). After a 1-hour incubation at 37° C., 100 μl of enhancement solution (Wallac #1244-105) was added and the plate was gently agitated. After 5 min, the fluorescence of the resulting solution was measured using the BMG Fluostar (Model # 403).

[2] = molecular target: T2, baculovirus-expressed human trkA cytoplasmic domain (Homo sapiens, UniProt P04629); assay: trkA tyrosine kinase inhibition assay (ELISA-based); conditions: 1 uM compound; 40 μM ATP
T2 construct: baculovirus-expressed human trkA cytoplasmic domain; host or cells: baculovirus expression system
T2 sequence (P04629 440-796 limits assumed): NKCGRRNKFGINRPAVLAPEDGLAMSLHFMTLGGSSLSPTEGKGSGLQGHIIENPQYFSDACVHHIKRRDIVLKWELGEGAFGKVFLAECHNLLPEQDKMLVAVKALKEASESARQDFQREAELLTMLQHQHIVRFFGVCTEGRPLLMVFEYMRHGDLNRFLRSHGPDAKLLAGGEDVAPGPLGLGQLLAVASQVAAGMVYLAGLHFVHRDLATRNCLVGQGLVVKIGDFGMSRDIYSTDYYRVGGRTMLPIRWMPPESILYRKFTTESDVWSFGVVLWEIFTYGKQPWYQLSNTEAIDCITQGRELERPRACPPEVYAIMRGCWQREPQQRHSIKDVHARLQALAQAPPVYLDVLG
Method: Inhibition of trkA Tyrosine Kinase Activity
Selected heterocyclic substituted pyrazolones were tested for their ability to inhibit the kinase activity of baculovirus-expressed human trkA cytoplasmic domain using an ELISA-based assay as previously described (Angeles et al., Anal. Biochem. 236: 49-55, 1996). Briefly, a 96-well microtiter plate was coated with substrate solution (recombinant human phospholipase C-γl/glutathione S-transferase fusion protein (Rotin et al., EMBO J., 11: 559-567, 1992). Inhibition studies were performed in 100 μl assay mixtures containing 50 mM Hepes, pH 7.4, 40 μM ATP, 10 mM MnCl2, 0.1% BSA, 2% DMSO, and various concentrations of inhibitor. The reaction was initiated by addition of trkA kinase and allowed to proceed for 15 minutes at 37° C. An antibody to phosphotyrosine (UBI) was then added, followed by a secondary enzyme-conjugated antibody, alkaline phosphatase-labelled goat anti-mouse IgG (Bio-Rad). The activity of the bound enzyme was measured via an amplified detection system (Gibco-BRL). Inhibition data were analyzed using the sigmoidal dose-response (variable slope) equation in GraphPad Prism.

baculoviral GST-MLK3KD = molecular target: T3, baculoviral GST-MLK3KD (Homo sapiens, UniProt Q16584); assay: Mixed Lineage Kinase-3 inhibition assay (Millipore Multiscreen plate, 32P); conditions: 1 uM compound, 100 μM ATP; for inhibition at 1 µM: read-out: MLK-3 Kinase % inhibition @ 1 uM
T3 construct: 2 μg/ml of baculoviral GST-MLK3KD; GST (N); host or cells: baculovirus expression system
T3 sequence (Q16584 117-379 limits assumed): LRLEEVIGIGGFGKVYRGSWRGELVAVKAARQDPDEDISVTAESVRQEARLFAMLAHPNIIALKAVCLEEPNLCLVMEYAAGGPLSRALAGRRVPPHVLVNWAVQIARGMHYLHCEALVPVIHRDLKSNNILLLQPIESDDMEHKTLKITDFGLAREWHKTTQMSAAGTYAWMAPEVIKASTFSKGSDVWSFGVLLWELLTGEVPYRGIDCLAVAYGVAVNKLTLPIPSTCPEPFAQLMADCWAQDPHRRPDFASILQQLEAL
Method: Inhibition of Mixed Lineage Kinase-3 Activity
Assays were performed using the Millipore Multiscreen plate format as described for MLK1. Briefly, each 50-μl assay mixture contained 20 mM Hepes, pH 7, 1 mM EGTA, 10 mM MgCl2, 1 mM DTT, 25 mM β-glycerophosphate, 100 μM ATP, 0.25 μCi [γ-^32P]ATP, 0.1% BSA, 500 μg/ml myelin basic protein (UBI #13-104), 2% DMSO, various concentrations of test compound, and 2 μg/ml of baculoviral GST-MLK3KD. Samples were incubated for 15 min at 37° C. The reaction was stopped by adding ice cold 50% TCA and the proteins were allowed to precipitate for 30 min at 4° C. The plates were then washed with ice cold 25% TCA. Supermix scintillation cocktail was added, and the plates were allowed to equilibrate for 1-2 hours prior to counting.

[3] = molecular target: T4, recombinant human baculovirus-expressed FGFR1 cytoplasmic domain (Homo sapiens, UniProt P11362); assay: FGFR1 kinase inhibition assay (ELISA-based, time-resolved fluorescence); conditions: 1 uM compound; 20 μM ATP
T4 construct: recombinant human baculovirus-expressed FGFR1 cytoplasmic domain; host or cells: baculovirus expression system
T4 sequence (P11362 398-822 limits assumed): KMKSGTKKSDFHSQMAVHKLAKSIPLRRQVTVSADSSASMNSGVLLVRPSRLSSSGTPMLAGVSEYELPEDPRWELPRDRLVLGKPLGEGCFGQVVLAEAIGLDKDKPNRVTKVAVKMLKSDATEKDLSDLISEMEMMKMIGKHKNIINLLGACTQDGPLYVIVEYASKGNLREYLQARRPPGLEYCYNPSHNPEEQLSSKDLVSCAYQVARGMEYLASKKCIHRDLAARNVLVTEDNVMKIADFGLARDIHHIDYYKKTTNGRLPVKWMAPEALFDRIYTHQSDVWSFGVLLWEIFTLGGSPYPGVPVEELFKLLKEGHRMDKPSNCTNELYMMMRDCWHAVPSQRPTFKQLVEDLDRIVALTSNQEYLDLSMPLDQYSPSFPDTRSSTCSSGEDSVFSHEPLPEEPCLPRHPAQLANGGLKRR
Method: Inhibition of Fibroblast Growth Factor Receptor-1 (FGFR1) Kinase Activity
The FGFR1 kinase activity was measured using an ELISA-based format in a 96-well FluoroNUNC Maxisorp plate with a time-resolved fluorescence readout as described for trkA kinase. The plate was coated with 100 μl/well of substrate solution (recombinant human PLC-γ/GST) at a concentration of 10 μg/ml in Tris buffered saline (TBS). The FDGFR1 activity was assayed in 100-μl assay micture containing 50 mM HEPES (pH 7.4), 20 μM ATP, 10 mM MnCl2, 0.1% BSA, 2% DMSO, and 15 ng/ml recombinant human baculovirus-expressed FGFR1 cytoplasmic domain (prephosphorylated prior to use). Compounds were screened for inhibition of the FGFR1 kinase activity at a conentration of 1 μM. The kinase reaction was allowed to proceed at 37° C. for 15 minutes. The detection antibody, europium-labeled anti-phosphotyrosine antibody (Wallace #CR04-100), was added at 1:5000 dilution in block buffer (3% BSA in TBST). After a 1-hour incubation at 37° C., 100 μl of enhancement solution (Wallac #1244-105) and the plate was gently agitated. After 5 min, the fluorescence of the resulting solutions measured using the BMG Fluostar (Model # 403).

| Compound | inhibition at 1 µM [1] | inhibition at 1 µM [2] | inhibition at 1 µM (baculoviral GST-MLK3KD) | inhibition at 1 µM [3] | VEGFR-1 kinase % inhibition @ 1 uM [1] | trkA % inhibition @ 1 uM [2] | MLK-3 Kinase % inhibition @ 1 uM (baculoviral GST-MLK3KD) | FGFR1 % inhibition @ 1 uM [3] |
| --- | --- | --- | --- | --- | --- | --- | --- | --- |
| O=C1NN=C(c2nccs2)C1=Cc1c[nH]c2ccccc12 [Compound 25, 4-(indol-3-ylmethylene)-3-(1,3-thiazol-2-yl)-2-pyrazolin-5-one] | 66% | 65% | 48% | 52% |  |  |  |  |
| Cc1cc(C)c(C=C2C(=O)NN=C2c2nccs2)[nH]1 [Compound 26, 4-[(3,5-dimethylpyrrol-2-yl)methylene]-3-(1,3-thiazol-2-yl)-2 pyrazolin-5-one] | 64% | 42% | 57% | 46% |  |  |  |  |
| Cc1cc(C)c(C=C2C(=O)NN=C2c2c(C)coc2C)[nH]1 [Compound 27] |  |  |  |  | 11% | 49% | 44% | 36% |
| Cc1cc(C)c(C=C2C(=O)NN=C2c2ccco2)[nH]1 [Compound 28, 4-[(3,5-dimethylpyrrol-2-yl)methylene]-3-(2-furyl)-2-pyrazolin-5-one] | 36% | 34% | 50% | 37% |  |  |  |  |
| O=C1NN=C(c2ccco2)C1=Cc1c[nH]c2ccccc12 [Compound 29, 3-(2-furyl)-4-(indol-3-ylmethylene)-2-pyrazolin-5-one] | 53% | 43% | 38% | 41% |  |  |  |  |
| Cc1cc(C)c(C=C2C(=O)NN=C2c2ccccn2)[nH]1 [Compound 30] |  |  |  |  | 41% | 22% | 46% | 27% |
| Cn1ccc(C2=NNC(=O)C2=Cc2c[nH]c3cccc(OCc4ccccc4)c23)c1 [Compound 31] |  |  |  |  | 10% | 39% | 49% | 17% |
| Cn1ccc(C2=NNC(=O)C2=Cc2c[nH]c3ccc(F)cc23)c1 [Compound 32] |  |  |  |  | 48% | 8% | 42% | 4% |
| Cc1ccc2c(C=C3C(=O)NN=C3c3ccn(C)c3)c[nH]c2c1 [Compound 33] |  |  |  |  | 36% | 32% | 28% | 27% |
| Cc1cccc2c(C=C3C(=O)NN=C3c3ccn(C)c3)c[nH]c12 [Compound 34] |  |  |  |  | 30% | 25% | 32% | 34% |
| Cn1ccc(C2=NNC(=O)C2=Cc2c[nH]c3ccc(Cl)cc23)c1 [Compound 35] |  |  |  |  | 10% | 23% | 34% | 29% |
| Cc1cc(C)c(C=C2C(=O)NN=C2c2cc(C)oc2C)[nH]1 [Compound 36] |  |  |  |  | 14% | 40% | 25% | 31% |
| Cc1cc(C)c(C=C2C(=O)NN=C2c2ccsc2)[nH]1 [Compound 37, 4-[(3,5-dimethylpyrrol-2-yl)methylene]-3-(3-thienyl)-2-pyrazolin-5-one] | 14% | 28% | 79% | 32% |  |  |  |  |
| O=C1NN=C(c2cccs2)C1=Cc1c[nH]c2ccccc12 [Compound 38, 4-(indol-3-ylmethylene)-3-(2-thienyl)-2-pyrazolin-5-one] | 28% | 40% | 38% | 28% |  |  |  |  |
| Cc1cc(C)c(C=C2C(=O)NN=C2c2csc3ccccc23)[nH]1 [Compound 39] |  |  |  |  | 4% | 31% | 55% | 13% |
| Cc1cc(C)c(C=C2C(=O)NN=C2c2csc(-c3ccccc3)n2)[nH]1 [Compound 40] |  |  |  |  | 16% | 27% | 22% | 22% |
| Cc1cc(C)c(C=C2C(=O)NN=C2c2cc(-c3ccc(Cl)cc3)oc2C)[nH]1 [Compound 41] |  |  |  |  | 5% | 17% | 10% | 21% |
| Cc1oc(-c2ccc(Cl)cc2)cc1C1=NNC(=O)C1=Cc1c[nH]c2ccccc12 [Compound 42] |  |  |  |  | 13% | 29% | 21% | 32% |
| O=C1NN=C(c2ccco2)C1=Cc1c[nH]c2ccc(OCc3ccccc3)cc12 [Compound 43] |  |  |  |  | −2% | 42% | 21% | 26% |
| O=C1NN=C(c2ccco2)C1=Cc1c[nH]c2cccc(OCc3ccccc3)c12 [Compound 44] |  |  |  |  | 2% | 23% | 28% | 10% |
| Cn1cc(C=C2C(=O)NN=C2c2ccco2)c2ccccc21 [Compound 45] |  |  |  |  | 46% | 39% | 56% | 8% |
| Cc1ccc2c(C=C3C(=O)NN=C3c3ccco3)c[nH]c2c1 [Compound 46] |  |  |  |  | 41% | 29% | 36% | 25% |

Reference: patent US6831075B2, “Heterocyclic substituted pyrazolones” (Cephalon, Inc., priority 1999, dated 2004)
